Patent publication US11000033B2, “Ketone or oxime compound, and herbicide” (NISSAN CHEMICAL CORPORATION, priority 2014, dated 2021)

What was measured:
Assay type in all cases: in vivo
Digitaria ciliaris = assay: Test Example 4: herbicidal effect by soil treatment (symbol F); settings: application herbicide amount 320 g/ha
How it was run: (§1)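 Seeds were sown in sterilized diluvial soil, covered with about 1.5 cm of soil, and the soil surface was sprayed with a water-diluted emulsion of the compound at a predetermined rate. Plants grew in a greenhouse at 25° C. to 30° C.; effects were scored visually 3 weeks after application.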

Lolium multiflorum Lam. = assay: Test Example 5: herbicidal effect by foliage application, plastic box (symbol K); settings: 320 g/ha, 3 weeks after application
How it was run: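 Visual herbicidal score, taken three weeks post-application, of seedlings sprayed on the foliage with water-diluted emulsion at a predetermined amount; plants were 14 days old, greenhouse-raised at 25° C. to 30° C.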

Abutilon theophrasti = assay: Test Example 4: herbicidal effect by soil treatment (symbol M); settings: application herbicide amount 320 g/ha
How it was run: as §1

Cyperus difformis = assay: Test Example 3: herbicidal effect by foliage application, Wagner pot (symbol E); settings: application herbicide amount 320 g/ha
How it was run: (§2)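 Plants sown in submerged alluvial soil (water depth 0.1–0.5 cm) in a 25–30 °C greenhouse and grown 14 days. An emulsion of the compound diluted in water to a set herbicide amount was sprayed uniformly on foliage. Effect on each plant scored 3 weeks after application.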

Leptochloa chinensis = assay: Test Example 3: herbicidal effect by foliage application, Wagner pot (symbol D); settings: application herbicide amount 320 g/ha
How it was run: as §2

corn = assay: Test Example 4: effect on crop by soil treatment (symbol c); settings: application herbicide amount 320 g/ha
How it was run: (§3)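 Greenhouse culture at 25° C. to 30° C. followed sowing of seed in spots on sterilized diluvial soil with a soil cover close to 1.5 cm thick.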

soybean = assay: Test Example 4: effect on crop by soil treatment (symbol d); settings: application herbicide amount 320 g/ha
How it was run: as §3

Amaranthus retroflexus = assay: Test Example 4: herbicidal effect by soil treatment (symbol N); settings: application herbicide amount 320 g/ha
How it was run: as §1

Monochoria vaginalis = assay: Test Example 1: herbicidal activity, application before weed generation in submerged conditions (symbol C); settings: application herbicide amount 320 g/ha
How it was run: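 0–5 visual score, 3 wk post-application. Submerged pots, alluvial soil, water 4 cm; seeds sown mixed, rice at 2.5 leaves transplanted. Emulsion diluted to predetermined dose, applied to water surface at sowing. 25–30 °C greenhouse.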

[1] = test system: Echinochloa oryzacola Vasing.; assay: Test Example 2: herbicidal activity, application during weed generation in submerged conditions (symbol A); settings: Table 23; application herbicide amount 320 g/ha; grade 0-5 by criteria of Test Example 1
How it was run: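 Seeds sown in flooded alluvial soil (4 cm water) were grown in a 25-30° C greenhouse. At the one- to two-leaf stage, diluted emulsion of compound was applied to the water surface at a predetermined rate. Effect was scored 3 weeks later.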

beet = assay: Test Example 4: effect on crop by soil treatment (symbol f); settings: application herbicide amount 320 g/ha
How it was run: as §3

SMILES	F (Digitaria ciliaris) herbicidal effect grade (Digitaria ciliaris)	K: Lolium multiflorum Lam., herbicidal effect grade (Lolium multiflorum Lam.)	M (Abutilon theophrasti) herbicidal effect grade (Abutilon theophrasti)	herbicidal effect on E, grade 0-5 (Cyperus difformis)	herbicidal effect on D (Leptochloa chinensis), grade 0-5 (Leptochloa chinensis)	c (corn) effect on crop grade (corn)	d (soybean) effect on crop grade (soybean)	N (Amaranthus retroflexus) herbicidal effect grade (Amaranthus retroflexus)	Herbicidal effect grade, C: Monochoria vaginalis (Monochoria vaginalis)	Herbicidal effect grade, A: Echinochloa oryzacola Vasing. [1]	f (beet) effect on crop grade (beet)
CON=C(C)CC1CC(OC(=O)C(C)(C)F)=C(c2c(C)cc(C)cc2C)C1=O (stereo not shown) [1-039]	5 (Herbicidal ratio of 90% or more (almost completely withered))	5 (Herbicidal ratio of 90% or more (almost completely withered))	5 (Herbicidal ratio of 90% or more (almost completely withered))	5 (Herbicidal ratio of 90% or more (almost completely withered))	5 (Herbicidal ratio of 90% or more (almost completely withered))	4 (Herbicidal ratio of 70% or higher and lower than 90%)	0 (Herbicidal ratio of 5% or lower (almost no effect))	5 (Herbicidal ratio of 90% or more (almost completely withered))	2 (Herbicidal ratio of 20% or higher and lower than 40%)	5 (Herbicidal ratio of 90% or more (almost completely withered))	3 (Herbicidal ratio of 40% or higher and lower than 70%)
COCC(CC1CC(O)=C(c2c(C)cc(C)cc2C)C1=O)=NOC (stereo not shown) [1-040]	4 (Herbicidal ratio of 70% or higher and lower than 90%)	5 (Herbicidal ratio of 90% or more (almost completely withered))	0 (Herbicidal ratio of 5% or lower (almost no effect))	4 (Herbicidal ratio of 70% or higher and lower than 90%)	4 (Herbicidal ratio of 70% or higher and lower than 90%)	0 (Herbicidal ratio of 5% or lower (almost no effect))	0 (Herbicidal ratio of 5% or lower (almost no effect))	0 (Herbicidal ratio of 5% or lower (almost no effect))	0 (Herbicidal ratio of 5% or lower (almost no effect))	4 (Herbicidal ratio of 70% or higher and lower than 90%)	0 (Herbicidal ratio of 5% or lower (almost no effect))
CON=C(C)CC1CC(OC(=O)C(C)(C)Oc2ccc(Cl)cc2)=C(c2c(C)cc(C)cc2C)C1=O (stereo not shown) [1-051]	5 (Herbicidal ratio of 90% or more (almost completely withered))	5 (Herbicidal ratio of 90% or more (almost completely withered))	5 (Herbicidal ratio of 90% or more (almost completely withered))	5 (Herbicidal ratio of 90% or more (almost completely withered))	5 (Herbicidal ratio of 90% or more (almost completely withered))	4 (Herbicidal ratio of 70% or higher and lower than 90%)	3 (Herbicidal ratio of 40% or higher and lower than 70%)	4 (Herbicidal ratio of 70% or higher and lower than 90%)	0 (Herbicidal ratio of 5% or lower (almost no effect))	5 (Herbicidal ratio of 90% or more (almost completely withered))	0 (Herbicidal ratio of 5% or lower (almost no effect))
CC(CC1CC(O)=C(c2c(C)cc(C)cc2C)C1=O)=NOC(C)C (stereo not shown) [1-052]	5 (Herbicidal ratio of 90% or more (almost completely withered))	5 (Herbicidal ratio of 90% or more (almost completely withered))	4 (Herbicidal ratio of 70% or higher and lower than 90%)	5 (Herbicidal ratio of 90% or more (almost completely withered))	5 (Herbicidal ratio of 90% or more (almost completely withered))	3 (Herbicidal ratio of 40% or higher and lower than 70%)	0 (Herbicidal ratio of 5% or lower (almost no effect))	3 (Herbicidal ratio of 40% or higher and lower than 70%)	0 (Herbicidal ratio of 5% or lower (almost no effect))	5 (Herbicidal ratio of 90% or more (almost completely withered))	0 (Herbicidal ratio of 5% or lower (almost no effect))
CC(CC1CC(O)=C(c2c(C)cc(C)cc2C)C1=O)=NOC(C)(C)C (stereo not shown) [1-053]	5 (Herbicidal ratio of 90% or more (almost completely withered))	5 (Herbicidal ratio of 90% or more (almost completely withered))	1 (Herbicidal ratio of 5% or higher and lower than 20%)	4 (Herbicidal ratio of 70% or higher and lower than 90%)	5 (Herbicidal ratio of 90% or more (almost completely withered))	1 (Herbicidal ratio of 5% or higher and lower than 20%)	0 (Herbicidal ratio of 5% or lower (almost no effect))	0 (Herbicidal ratio of 5% or lower (almost no effect))	0 (Herbicidal ratio of 5% or lower (almost no effect))	4 (Herbicidal ratio of 70% or higher and lower than 90%)	0 (Herbicidal ratio of 5% or lower (almost no effect))
CC(CC1CC(O)=C(c2c(C)cc(C)cc2C)C1=O)=NOCC[Si](C)(C)C (stereo not shown) [1-055]	5 (Herbicidal ratio of 90% or more (almost completely withered))	5 (Herbicidal ratio of 90% or more (almost completely withered))	0 (Herbicidal ratio of 5% or lower (almost no effect))	4 (Herbicidal ratio of 70% or higher and lower than 90%)	5 (Herbicidal ratio of 90% or more (almost completely withered))	0 (Herbicidal ratio of 5% or lower (almost no effect))	0 (Herbicidal ratio of 5% or lower (almost no effect))	0 (Herbicidal ratio of 5% or lower (almost no effect))	0 (Herbicidal ratio of 5% or lower (almost no effect))	2 (Herbicidal ratio of 20% or higher and lower than 40%)	0 (Herbicidal ratio of 5% or lower (almost no effect))
CC(CC1CC(O)=C(c2c(C)cc(C)cc2C)C1=O)=NOCC=CCl (stereo not shown) [1-056]	5 (Herbicidal ratio of 90% or more (almost completely withered))	5 (Herbicidal ratio of 90% or more (almost completely withered))	4 (Herbicidal ratio of 70% or higher and lower than 90%)	5 (Herbicidal ratio of 90% or more (almost completely withered))	5 (Herbicidal ratio of 90% or more (almost completely withered))	3 (Herbicidal ratio of 40% or higher and lower than 70%)	0 (Herbicidal ratio of 5% or lower (almost no effect))	3 (Herbicidal ratio of 40% or higher and lower than 70%)	4 (Herbicidal ratio of 70% or higher and lower than 90%)	5 (Herbicidal ratio of 90% or more (almost completely withered))	0 (Herbicidal ratio of 5% or lower (almost no effect))
CC(CC1CC(O)=C(c2c(C)cc(C)cc2C)C1=O)=NOc1ccccc1 (stereo not shown) [1-057]	4 (Herbicidal ratio of 70% or higher and lower than 90%)	5 (Herbicidal ratio of 90% or more (almost completely withered))	3 (Herbicidal ratio of 40% or higher and lower than 70%)	3 (Herbicidal ratio of 40% or higher and lower than 70%)	3 (Herbicidal ratio of 40% or higher and lower than 70%)	0 (Herbicidal ratio of 5% or lower (almost no effect))	0 (Herbicidal ratio of 5% or lower (almost no effect))	1 (Herbicidal ratio of 5% or higher and lower than 20%)	2 (Herbicidal ratio of 20% or higher and lower than 40%)	2 (Herbicidal ratio of 20% or higher and lower than 40%)	0 (Herbicidal ratio of 5% or lower (almost no effect))
